| melting point | SMILES |
| --- | --- |
| 84 to 85 °C | CC(C)c1nc(CN=[N+]=[N-])n(C)c1Sc1cc(Cl)cc(Cl)c1 |
| 191 to 193 °C | C=CC(=O)NCc1c(-c2ccccc2)n[nH]c1C |
| 73 to 74 °C | COc1ccc(Nc2cccc(Cl)c2[N+](=O)[O-])cc1 |
| 99 to 101 °C | COc1ccc(-c2ccc(Cl)cc2)cc1COCCc1cccc(NS(=O)(=O)C(F)(F)F)c1 |
| 168 to 169 °C | CC(=NNC(=S)NCCN1CCOCC1)c1ccccn1 |
| 73 to 76 °C | CCCCOc1ccc(S(=O)(=O)N2CCC(N(Cc3ccccc3)CC(O)COc3cccc4[nH]c5ccccc5c34)C2)cc1 (stereo not given) |
| 67 to 69 °C | COc1cc(C(C)=O)ccc1C1CCCCO1 (stereo not given) |
| 142 to 145 °C | C#CCOc1cc(-c2nc3n(c2Cl)CCCC3)c(F)cc1Cl |
| 184 to 186 °C | CN1CCN(c2cccc3c2C[C@H](NC(=O)CCc2ccccc2)CC3)CC1 |
| 127 °C | CCCC1=NN(c2ccccc2C(=O)O)C(=O)C1=CNc1ccccc1CC |
| 95 to 96 °C | CCOC(=O)c1cc(Cl)nc(SCc2ccc3ccccc3c2)n1 |
| 205 to 206 °C | Brc1cccc(Br)c1OC1C=CC(Oc2c(Br)cccc2Br)C1 (stereo not given) |
| 42 to 44 °C | CCCCCc1c(C(C)C)nc(C(C)C)c(CO)c1-c1ccc(C(C)C)cc1 |
| 83.5 °C | Clc1ccccc1COc1c(Cl)cc(OCC=C(Br)Br)cc1Cl |
| 123 to 125 °C | COC(=O)CC(=O)/C=C/c1c(-c2ccc(F)cc2)n(C(C)C)c(=O)c2ccccc12 |
| 111 °C | CNc1nc(N)nc2c1ncn2C1CC(F)C(CO)O1 (stereo not given) |
| 158 to 160 °C | CCc1cc(C(=O)c2ccccc2Cl)c(-n2cnnc2CNC(=O)c2ccc(Cl)c(Cl)c2)s1 |
| 120 °C | COCc1cc(-c2ccccc2)c(=O)n2c1-c1sccc1CC2 |
| 146 to 147 °C | CCC(C)c1ccc2c(c1)C(=O)N(c1ccc3c(ccn3C)c1)C2 (stereo not given) |
| 98 to 99 °C | COC(=O)C1=Cc2cc(Br)cnc2N2CCCC2CC1 (stereo not given) |
| 127 to 129 °C | O=C1CN2C(=N1)NCc1c(Cl)cccc12 |
| 128 to 129 °C | COC(=O)CS(=O)(=O)NOC[C@@H]1NC(=O)[C@@H]1NC(=O)OC(C)(C)C (relative stereo) |
| 60 to 62 °C | COC(=O)C1NC(c2ccc(Cl)cc2)C/C(=N\OS(C)(=O)=O)C1(Cl)Cl (stereo not given) |
| 123 °C | O=c1c(-c2cccs2)nc2ccccc2n1CC1CCCO1 (stereo not given) |

| melting point | SMILES |
| --- | --- |
| > 300 °C | O=C(NN=Cc1c(O)ccc2ccccc12)c1cc2ccccc2cc1O |
| 233 °C | Nc1cc(-c2cccnc2)nc(-c2ccco2)n1 |
| 145 to 146 °C | Cc1ccc([C@@H](Sc2cc(C)ccc2N)[C@H](O)C(N)=O)cc1 |
| 107 to 111 °C | O=C(O)CN1C(=O)C(NC(=O)[C@@H](S)Cc2ccccc2)CCCc2ccccc21 (stereo not given in full) |
| 121 to 131 °C | COc1ccccc1N1CCN(C[C@@H](CC2CCCCC2)NC(=O)C2CCCCC2)CC1 |
| 123 to 124 °C | CCCC(O)C(C)C(=O)n1c(=O)oc2ccccc21 (stereo not given) |
| 243 to 244 °C | Clc1nc2cc(Cl)c(Cl)c(Cl)c2[nH]1 |
| 137 to 138 °C | O=C(CCCN1CCC2(CC1)OC(c1ccccc1)c1ccccc12)c1ccc(F)cc1 (stereo not given) |
| 239 to 240 °C | O=C(Nc1cc2c3c(c1)CCCC3CCC2)c1ccc(C(=O)O)nc1 |
| 168 to 169 °C | CC(C)=CCN1N=C(c2ccc(F)cc2)c2cc(Cl)ccc2CS1(=O)=O |
| 165 to 168 °C | CCC(O)(CC)[C@H](C[C@H](O)[C@H](CC1CCCCC1)NC(=O)[C@H](Cc1cscn1)NC(=O)OC(C)(C)C)C(=O)NC |
| 232 to 233 °C | O=C(Cl)c1cc2[nH]c3cc(Cl)ccc3c2o1 |
| 217 to 219 °C | O=c1cc2c(nn1-c1ccc(Cl)cc1)-c1cccc(Cl)c1S(=O)CC2 (stereo not given) |
| 160 °C | O=C(c1ccccc1)c1cccc2c1CCC2C(=O)NO (stereo not given) |
| 139 to 140 °C | O=C(NCCSCc1cccc(Cl)c1)c1c([N+](=O)[O-])cccc1[N+](=O)[O-] |
| 178 °C | CN(Cc1ccc(CCn2cnc3cc(-c4ccc(Cl)cc4)sc3c2=O)cc1)C(=O)C1CC1 |
| 179 to 180 °C | CC(C)NC(=S)N1CCc2nc(N)sc2C1 |
| 220 to 222 °C | Cc1ccccc1NS(=O)(=O)c1cc(S(=O)(=O)Nc2ccccc2C)c2ccccc2c1O |
| 224 to 225 °C | NC(=O)Nc1n[nH]c(-c2ccncc2)c1-c1ccc(F)cc1 |
| 144 to 146 °C | CN1C(C(=O)O)C(=O)c2ccccc2S1(=O)=O (stereo not given) |
| 137 to 139 °C | CC(C(=O)O)c1ccc2onc(-c3ccc(Cl)cc3)c2c1 (stereo not given) |
| 35 to 36 °C | ClCCCOc1ccc(Cl)cc1 |
| 334 to 336 °C | Cc1c(-c2ccccc2Cl)sc2nc(N)[nH]c(=O)c12 |
| 205 to 206 °C | CCOC(=O)c1cc2c(nc(C)n2C)c2c1C(=O)CC1(Cc3ccccc3C1)N2 |

| melting point | SMILES |
| --- | --- |
| 141 to 143 °C | CCCCC(C(=O)O)n1cncn1 (stereo not given) |
| 52 to 55 °C | Cc1cc(Oc2ccc(Cl)cc2Cl)ccc1C#N |
| 223 to 225 °C | CCOC(=O)c1ccccc1-c1ccc(Nc2cc(CC)nc3ccnn23)cc1 |
| 95 to 98 °C | COC(=O)C[C@H](O)C[C@H](O)CCc1c(-c2ccc(F)cc2)c(-c2ccc(F)cc2)c(C(=O)Nc2cccc(C(=O)N(C)C)c2)n1C(C)C |
| 277 to 279 °C | NC(=O)c1cnc2c([N+](=O)[O-])cccc2c1Cl |
| 271 to 274 °C | CCNC1=NS(=O)(=O)c2sc(Cl)cc2N1 |
| 170 °C | CCCCN1C(=O)NC(=Cc2cc(OC)c(OC)cc2OC)C1=O |
| 193 to 194 °C | COc1cccc(CN2C(=O)C3CCCC3N(C(=O)CN3C(=O)c4ccccc4C3=O)c3ccccc32)c1 (stereo not given) |
| 66 to 71 °C | Cc1onc(-c2ccc(Cl)c(Cl)c2)c1-c1ccc(S(N)(=O)=O)cc1 |
| 112 to 113 °C | CCOC(=O)c1csc(/C=C/c2cccc(N)c2)n1 |
| 145 to 148 °C | Cc1cc(C)c2cccc(OCc3c(C)ccc(N(C)C(=O)CN)c3C)c2n1 |
| 158 °C | CCOC(=O)C(=O)Nc1cc(OC)ccc1[N+](=O)[O-] |
| 150 to 152 °C | C[C@@H](CN)CCC[C@@H](C)[C@H]1CC[C@H]2[C@@H]3CC=C4C[C@@H](O)CC[C@]4(C)[C@H]3CC[C@]12C |
| 118 to 119 °C | CCCCn1cnc2c(SCc3ccc4nsc(Br)c4c3)ncnc21 |
| 137 to 140 °C | NC(=S)NN=C(CCCOC(=O)NCc1ccccc1)c1ccccc1 |
| 120 to 125 °C | COC1(F)C=CC=C(c2cc(CBr)c(=O)n(Cc3ccc(F)cc3)n2)C1 (stereo not given) |
| 146 to 148 °C | Cc1ccc2nc(-c3ccc4c(c3)sc(=N)n4C)sc2c1 |
| 158 to 159 °C | C=CCOc1cn(C)c2cc(F)ccc2c1=O |
| 170 to 172 °C | O=C1NC(C(=O)O)CCCCCCCCCCC1CS (stereo not given) |
| 190 to 205 °C | CCCNCc1ccc(-c2cc3ncnc(Nc4ccc5[nH]ccc5c4)c3s2)cc1 |
| 182 to 183 °C | Cc1ccc(N2C(=O)c3cc([N+](=O)[O-])cc([N+](=O)[O-])c3C2=O)cc1 |
| 166 to 167 °C | COc1cc(CCC(=O)c2c(O)cc(O)c(CCC(C)C)c2O)cc(OC)c1O |
| 98 to 101 °C | CCOC(=O)c1ncn(-c2nc(C)cs2)c1Cl |
| 87 to 90 °C | CCOC(=O)CC1(c2ccc(Cl)c(Cl)c2)CNC(=O)C1 (stereo not given) |

| melting point | SMILES |
| --- | --- |
| 123 to 125 °C | CC(C)c1nc(-c2cccs2)cc(-c2ccc(F)cc2)c1C=O |
| 85 °C | COc1cc2c(cc1OCc1ccccc1)C(C#N)C2 (stereo not given) |
| 139 to 140 °C | CCc1nc2c(-c3ccc(OC)cc3Cl)ncnc2n1C(C1CC1)C1CC1 |
| 270 to 278 °C | Cc1c(F)c(F)cc2c(=O)c(C(=O)O)cn(-c3cc(O)c(F)cc3F)c12 |
| > 320 °C | CCOc1ccc2nc3[nH]c(=O)[nH]c3cc2c1 |
| 229 to 230 °C | Cc1nc2c(OCc3c(Cl)ccc(N(C)C(=O)Oc4ccc([N+](=O)[O-])cc4)c3Cl)cccn2c1Br |
| 97 to 100 °C | CC12CCC3c4ccc(OCc5ccccc5)cc4CCC3C1CCC2O (stereo not given) |
| 99 to 101 °C | Cc1ccc(C(=O)c2cccc3c2CCC3(C)C(=O)O)cc1 (stereo not given) |
| 40 to 42 °C | COC1CC=C(c2ccc(C(C)=O)cc2)CC1 (stereo not given) |
| 70 °C | COC(=O)Cc1ccc(CNC(=O)C2Cc3ccccc3N2S(=O)(=O)c2ccc(-c3cccc(Cl)c3)cc2)cc1 (stereo not given) |
| 70 to 72 °C | CC(=O)Oc1ccc(C=CC(=O)C=Cc2ccc(OC(C)=O)c(OC(C)=O)c2)cc1OC(C)=O |
| 195 to 197 °C | COc1cn(-c2ccc(-c3cnn(C)c3)cc2F)nc(-c2ccnn2-c2ccccc2)c1=O |
| 130 °C | CC(c1cccc(C(=O)c2ccccc2)c1)C(O)CC#N (stereo not given) |
| 115 to 117 °C | Cc1nn(-c2c(Cl)cc(C(F)(F)F)cc2Cl)nc1SC#N |
| 108 to 110 °C | COc1cc(N)c2nc(C)cc(C)c2c1OC |
| 162 to 163 °C | Oc1ccc(N=C2SCS2)cc1 |
| 193 to 195 °C | O=C1Nc2ccccc2N(C(=O)N2CCC(CCCCN3CCCC3)CC2)c2ncccc21 |
| 188 to 189 °C | Cc1nnc(-c2ccc3occ(C#N)c3c2)o1 |
| > 250 °C | Nc1nc2c(s1)CCN(C(=O)c1ccc(NC(=O)c3ccccc3-c3ccccc3)cc1)c1ccccc1-2 |
| 182 to 183 °C | Cc1ccc(C(C)(C)C)cc1P(=O)(O)c1cc(C(C)(C)C)ccc1C |
| 78.5 to 80 °C | CC1=CC(N(C)Cc2ccccc2)C(O)C(C)(C)CC1=O (stereo not given) |
| 133 to 135 °C | COc1cc(-n2cccn2)ccc1-n1cc(OC)c(=O)c(-c2ccnn2-c2ccccc2)n1 |
| 123 to 126 °C | O=C1c2ccc([N+](=O)[O-])cc2COc2cc(-n3cnnn3)ccc21 |
| 197 to 199 °C | Cc1ccc(-c2nnc(N3CCC(=O)CC3)nc2-c2ccc(C)cc2)cc1 |

| SMILES | melting point |
| --- | --- |
| CC1C(=O)CN[C@H]2c3ccc(Cl)cc3CC[C@H]12 (stereo not given in full) | 71.5 to 73 °C |
| CN1CCC(c2c[nH]c3ccc(OC4CCCCC4)cc23)CC1 | 192 to 194 °C |
| CN1Cc2c(C#N)ncn2-c2cccc(Br)c2C1=O | 226 to 228 °C |
| COc1cccc(NC(=O)NC2N=C(c3ccccc3)c3ccccc3N(CC(=O)N3CCCC3)C2=O)c1 (stereo not given) | 193 to 194 °C |

— a melting point compilation (Tetko et al.; mined from patent text by program, amines drawn as free bases though some values may be those of a salt)
